Results reported in the NIST ThermoML archive (doi:10.1021/je049721u).
± gives the expanded uncertainty stated by the source.

Experiment: mn = molality of the nth substance listed, in mol/kg
Details: 101.3 kPa, Liquid; for speed of sound: Pulse-echo method

[Mn+2].[O-][Cl+3]([O-])([O-])[O-].[O-][Cl+3]([O-])([O-])[O-] [manganese (II) perchlorate] + CN(C)C=O
Details | mass density, 283.15 K [kg/m3] | mass density, 293.15 K [kg/m3] | mass density, 298.15 K [kg/m3] | mass density, 303.15 K [kg/m3] | mass density, 313.15 K [kg/m3] | mass density, 323.15 K [kg/m3] | mass density, 333.15 K [kg/m3] | speed of sound, 298.15 K [m/s]
m1 = 0.04109 | 966.326 ± 0.58 | 956.852 ± 0.58 | 952.107 ± 0.58 | 947.355 ± 0.59 | 937.821 ± 0.59 | 928.242 ± 0.6 | 918.616 ± 0.6 | 1460.8 ± 1.4
m1 = 0.05823 | 969.773 ± 0.57 | 960.312 ± 0.58 | 955.574 ± 0.58 | 950.83 ± 0.58 | 941.313 ± 0.59 | 931.759 ± 0.59 | 922.147 ± 0.6 | –
m1 = 0.08396 | 974.96 ± 0.57 | 965.52 ± 0.58 | 960.793 ± 0.58 | 956.059 ± 0.58 | 946.568 ± 0.59 | 937.04 ± 0.59 | 927.465 ± 0.6 | 1464.6 ± 1.5
m1 = 0.1024 | 978.695 ± 0.57 | 969.265 ± 0.58 | 964.546 ± 0.58 | 959.822 ± 0.58 | 950.346 ± 0.58 | 940.834 ± 0.59 | 931.273 ± 0.6 | –
m1 = 0.1233 | 982.926 ± 0.57 | 973.513 ± 0.57 | 968.799 ± 0.58 | 964.082 ± 0.58 | 954.629 ± 0.58 | 945.142 ± 0.59 | 935.612 ± 0.59 | 1468.2 ± 1.5
m1 = 0.1616 | 990.785 ± 0.57 | 981.396 ± 0.57 | 976.698 ± 0.57 | 971.997 ± 0.58 | 962.575 ± 0.58 | 953.124 ± 0.58 | 943.633 ± 0.59 | 1471.4 ± 1.5
m1 = 0.2007 | 998.895 ± 0.57 | 989.531 ± 0.57 | 984.846 ± 0.57 | 980.162 ± 0.57 | 970.768 ± 0.58 | 961.357 ± 0.58 | 951.918 ± 0.59 | 1475 ± 1.5
m1 = 0.2395 | 1007.03 ± 0.58 | 997.69 ± 0.57 | 993.019 ± 0.57 | 988.351 ± 0.57 | 978.996 ± 0.58 | 969.623 ± 0.58 | 960.225 ± 0.58 | 1478.3 ± 1.5
m1 = 0.2793 | 1015.47 ± 0.59 | 1006.16 ± 0.58 | 1001.5 ± 0.57 | 996.842 ± 0.57 | 987.519 ± 0.58 | 978.179 ± 0.58 | 968.812 ± 0.58 | 1481.9 ± 1.5
m1 = 0.3166 | 1023.51 ± 0.6 | 1014.22 ± 0.59 | 1009.58 ± 0.58 | 1004.94 ± 0.58 | 995.645 ± 0.57 | 986.342 ± 0.58 | 977.019 ± 0.58 | 1485.6 ± 1.5
m1 = 0.3529 | 1031.38 ± 0.61 | 1022.11 ± 0.6 | 1017.48 ± 0.59 | 1012.85 ± 0.59 | 1003.59 ± 0.58 | 994.313 ± 0.58 | 985.025 ± 0.58 | 1488.9 ± 1.5
m1 = 0.3885 | 1039.21 ± 0.62 | 1029.96 ± 0.61 | 1025.35 ± 0.6 | 1020.73 ± 0.6 | 1011.5 ± 0.59 | 1002.27 ± 0.58 | 993.029 ± 0.58 | 1492.5 ± 1.5

[Cu+2].[O-][Cl+3]([O-])([O-])[O-].[O-][Cl+3]([O-])([O-])[O-] [copper perchlorate] + CN(C)C=O
Details | mass density, 283.15 K [kg/m3] | mass density, 293.15 K [kg/m3] | mass density, 298.15 K [kg/m3] | mass density, 303.15 K [kg/m3] | mass density, 313.15 K [kg/m3] | mass density, 323.15 K [kg/m3] | mass density, 333.15 K [kg/m3] | speed of sound, 298.15 K [m/s]
m1 = 0.0362 | 965.762 ± 0.58 | 956.275 ± 0.58 | 951.52 ± 0.59 | 946.762 ± 0.59 | 937.212 ± 0.59 | 927.62 ± 0.6 | 917.988 ± 0.61 | 1460 ± 1.4
m1 = 0.04897 | 968.496 ± 0.58 | 959.009 ± 0.58 | 954.258 ± 0.59 | 949.505 ± 0.59 | 939.972 ± 0.59 | 930.338 ± 0.6 | 920.756 ± 0.61 | –
m1 = 0.0604 | 970.938 ± 0.58 | 961.462 ± 0.58 | 956.715 ± 0.58 | 951.971 ± 0.59 | 942.44 ± 0.59 | 932.866 ± 0.6 | 923.242 ± 0.6 | 1461.7 ± 1.4
m1 = 0.07815 | 974.714 ± 0.58 | 965.248 ± 0.58 | 960.507 ± 0.58 | 955.758 ± 0.59 | 946.236 ± 0.59 | 936.666 ± 0.6 | 927.06 ± 0.6 | 1463.2 ± 1.5
m1 = 0.106 | 980.752 ± 0.58 | 971.295 ± 0.58 | 966.549 ± 0.58 | 961.812 ± 0.58 | 952.315 ± 0.59 | 942.78 ± 0.59 | 933.198 ± 0.6 | 1465.3 ± 1.5
m1 = 0.139 | 987.892 ± 0.58 | 978.445 ± 0.58 | 973.718 ± 0.58 | 968.984 ± 0.58 | 959.5 ± 0.59 | 949.979 ± 0.59 | 940.416 ± 0.6 | 1467.8 ± 1.5
m1 = 0.1737 | 995.495 ± 0.58 | 986.058 ± 0.58 | 981.338 ± 0.58 | 976.613 ± 0.58 | 967.148 ± 0.58 | 957.653 ± 0.59 | 948.12 ± 0.59 | 1470.3 ± 1.5
m1 = 0.2084 | 1003.16 ± 0.58 | 993.739 ± 0.58 | 989.024 ± 0.58 | 984.309 ± 0.58 | 974.859 ± 0.58 | 965.385 ± 0.59 | 955.869 ± 0.59 | 1473.2 ± 1.5
m1 = 0.2431 | 1010.94 ± 0.59 | 1001.53 ± 0.58 | 996.825 ± 0.58 | 992.116 ± 0.58 | 982.686 ± 0.58 | 973.233 ± 0.58 | 963.75 ± 0.59 | 1475.7 ± 1.5
m1 = 0.2746 | 1018.01 ± 0.6 | 1008.7 ± 0.59 | 1003.95 ± 0.58 | 999.2 ± 0.58 | 989.83 ± 0.58 | 980.454 ± 0.58 | 970.858 ± 0.59 | 1478.3 ± 1.5
m1 = 0.3065 | 1025.38 ± 0.61 | 1015.99 ± 0.6 | 1011.3 ± 0.59 | 1006.6 ± 0.59 | 997.202 ± 0.58 | 987.786 ± 0.58 | 978.345 ± 0.58 | 1480.8 ± 1.5
m1 = 0.3377 | 1032.62 ± 0.61 | 1023.24 ± 0.6 | 1018.54 ± 0.6 | 1013.85 ± 0.59 | 1004.46 ± 0.58 | 995.056 ± 0.58 | 985.638 ± 0.58 | 1483.8 ± 1.5
